{"source": "patent US20250127863A1", "about": "“ANTIMICROBIAL PEPTIDE FOR ONYCHOMYCOSIS” (CBMR SCIENTIFIC NANOSCIENCE B.V., priority 2019, published 2025)", "key": {"Trichoderma viride": {"test_system": "Trichoderma viride", "experiment": "IC50 growth inhibition", "type": "cell-based"}, "Penicillium vermiculatum": {"test_system": "Penicillium vermiculatum", "experiment": "MIC90 growth inhibition", "type": "cell-based", "conditions": "RPMI 1640 one-fourth strength", "description": "(§1) The minimum inhibitory concentration (MIC) value is defined as the lowest sample concentration that inhibited growth. In the Examples, the MIC90 value is presented, which MIC90 values are determined according to established methods known to the person with the skills in the relevant art. Experiments; 1×10E5 CFU of various strains/ml were incubated for 24-48 h at 37° C. in 4× diluted medium of RPMI 1640 with the indicated concentrations of antimicrobial peptide hLF(1-11) [SEQ ID NO: 3]. As controls various strains cells were incubated for 24-48 h at 37° C. with no agent (antimicrobial peptide), and subsequently, growth of the microbial organism (e.g. yeast, bacterium) was monitored by using spectrophotometry with a spectrophotometer at 620 nm. […] ND=Not done. Representative single assay data are listed rather than a range, for clarity reasons and for ease of comparison of peptide efficacy. The MIC was calculated as the lowest antibiotic (antimicrobial peptide) concentration at which growth of the assessed yeast or bacterium (microbe) was inhibited (inhibitory concentration IC90)."}, "[1]": {"test_system": "Cryptococcus uniguttulatus", "experiment": "MIC90 growth inhibition", "type": "cell-based", "conditions": "RPMI 1640 one-fourth strength", "description": "as §1"}, "Aspergillus nidulans": {"test_system": "Aspergillus nidulans", "experiment": "MIC90 growth inhibition", "type": "cell-based", "conditions": "RPMI 1640 one-fourth strength", "description": "as §1"}, "Cryptococcus neoformans": {"test_system": "Cryptococcus neoformans", "experiment": "MIC90 growth inhibition", "type": "cell-based", "conditions": "RPMI 1640 one-fourth strength", "description": "as §1"}, "Sporotrichium spp": {"test_system": "Sporotrichium spp", "experiment": "MIC90 growth inhibition", "type": "cell-based", "conditions": "RPMI 1640 one-fourth strength", "description": "as §1"}, "[2]": {"test_system": "Staphylococcus aureus (MRSA)", "experiment": "MIC90 growth inhibition", "type": "cell-based", "conditions": "RPMI 1640 one-fourth strength", "description": "as §1"}, "Penicillium pinophilum": {"test_system": "Penicillium pinophilum", "experiment": "MIC90 growth inhibition", "type": "cell-based", "conditions": "RPMI 1640 one-fourth strength", "description": "as §1"}, "Dekkera bruxellensis": {"test_system": "Dekkera bruxellensis", "experiment": "MIC90 growth inhibition", "type": "cell-based", "conditions": "RPMI 1640 one-fourth strength", "description": "as §1"}, "Cryptococcus curvatus": {"test_system": "Cryptococcus curvatus", "experiment": "MIC90 growth inhibition", "type": "cell-based", "conditions": "RPMI 1640 one-fourth strength", "description": "as §1"}, "[3]": {"test_system": "Staphylococcus aureus 29213", "experiment": "MIC90 growth inhibition", "type": "cell-based", "conditions": "RPMI 1640 one-fourth strength", "description": "as §1"}, "Botrytis cinerea": {"test_system": "Botrytis cinerea", "experiment": "MIC90 growth inhibition", "type": "cell-based", "conditions": "RPMI 1640 one-fourth strength", "description": "as §1"}, "Aspergillus niger": {"test_system": "Aspergillus niger", "experiment": "MIC90 growth inhibition", "type": "cell-based", "conditions": "RPMI 1640 one-fourth strength", "description": "as §1"}, "Entrobacter cloacae": {"test_system": "Entrobacter cloacae", "experiment": "MIC90 growth inhibition", "type": "cell-based", "conditions": "RPMI 1640 one-fourth strength", "description": "as §1"}, "Malassezia furfur spp.": {"test_system": "Malassezia furfur spp.", "experiment": "MIC90 growth inhibition", "type": "cell-based", "conditions": "RPMI 1640 one-fourth strength", "description": "as §1"}, "Zygosaccharomyces bailii": {"test_system": "Zygosaccharomyces bailii", "experiment": "MIC90 growth inhibition", "type": "cell-based", "conditions": "RPMI 1640 one-fourth strength", "description": "as §1"}, "Nannizzia otae": {"test_system": "Nannizzia otae", "experiment": "MIC90 growth inhibition", "type": "cell-based", "conditions": "RPMI 1640 one-fourth strength", "description": "as §1"}, "Fusarium moniliforme": {"test_system": "Fusarium moniliforme", "experiment": "MIC90 growth inhibition", "type": "cell-based", "conditions": "RPMI 1640 one-fourth strength", "description": "as §1"}, "Nannizzia incurvata": {"test_system": "Nannizzia incurvata", "experiment": "MIC90 growth inhibition", "type": "cell-based", "conditions": "RPMI 1640 one-fourth strength", "description": "as §1"}, "Proteus spp": {"test_system": "Proteus spp", "experiment": "MIC90 growth inhibition", "type": "cell-based", "conditions": "RPMI 1640 one-fourth strength", "description": "as §1"}, "Geotrichium spp": {"test_system": "Geotrichium spp", "experiment": "MIC90 growth inhibition", "type": "cell-based", "conditions": "RPMI 1640 one-fourth strength", "description": "as §1"}, "Trichophyton spp": {"test_system": "Trichophyton spp", "experiment": "MIC90 growth inhibition", "type": "cell-based", "conditions": "Trichophyton spp (Table 1); RPMI 1640 one-fourth strength", "description": "as §1"}, "Moraxella catarrhalis": {"test_system": "Moraxella catarrhalis", "experiment": "MIC90 growth inhibition", "type": "cell-based", "conditions": "RPMI 1640 one-fourth strength", "description": "as §1"}, "[4]": {"test_system": "Saccharomyces cerivisiae ATCC 2602", "experiment": "MIC90 growth inhibition", "type": "cell-based", "conditions": "RPMI 1640 one-fourth strength", "description": "as §1"}, "[5]": {"test_system": "C. guilliermondii CBS-2030", "experiment": "MIC90 growth inhibition", "type": "cell-based, Candida guilliermondii", "conditions": "RPMI 1640 one-fourth strength", "description": "as §1"}, "C. guilliermondii": {"test_system": "C. guilliermondii", "experiment": "MIC90 growth inhibition", "type": "cell-based, Candida guilliermondii", "conditions": "RPMI 1640 one-fourth strength", "description": "as §1"}, "C. krusei (LUMC)": {"test_system": "C. krusei (LUMC)", "experiment": "MIC90 growth inhibition", "type": "cell-based, Candida krusei", "conditions": "RPMI 1640 one-fourth strength", "description": "as §1"}, "C. krusei CMC-2002": {"test_system": "C. krusei CMC-2002", "experiment": "MIC90 growth inhibition", "type": "cell-based, Candida krusei", "conditions": "RPMI 1640 one-fourth strength", "description": "as §1"}, "C. krusei spp": {"test_system": "C. krusei spp", "experiment": "MIC90 growth inhibition", "type": "cell-based, Candida krusei", "conditions": "RPMI 1640 one-fourth strength", "description": "as §1"}, "C. glabrata CBS-138": {"test_system": "C. glabrata CBS-138", "experiment": "MIC90 growth inhibition", "type": "cell-based, Candida glabrata", "conditions": "RPMI 1640 one-fourth strength", "description": "as §1"}, "C. glabrata spp.": {"test_system": "C. glabrata spp.", "experiment": "MIC90 growth inhibition", "type": "cell-based, Candida glabrata", "conditions": "RPMI 1640 one-fourth strength", "description": "as §1"}, "C. glabrata (LUMC)": {"test_system": "C. glabrata (LUMC)", "experiment": "MIC90 growth inhibition", "type": "cell-based, Candida glabrata", "conditions": "RPMI 1640 one-fourth strength", "description": "as §1"}, "C. glabrata CMC-1933": {"test_system": "C. glabrata CMC-1933", "experiment": "MIC90 growth inhibition", "type": "cell-based, Candida glabrata", "conditions": "RPMI 1640 one-fourth strength", "description": "as §1"}, "Sclerotium rolfsii": {"test_system": "Sclerotium rolfsii", "experiment": "IC50 growth inhibition", "type": "cell-based"}, "onychomycosis": {"test_system": "onychomycosis", "experiment": "Application of the composition by human subjects (Example 1)", "type": "in vivo", "description": "The concentration of the antimicrobial peptide in the composition used for the treatment of onychomycosis by human subjects, was 30 mg/l ([…]).\nThe composition used comprises the antimicrobial peptide hLF1-11 (GRRRRSVQWCA) [SEQ ID NO: 3] and is a clear colorless liquid in a (glass) bottle with a dropper to facilitate application to the nail. […] The antimicrobial peptide is completely biodegradable.\nThe composition is applied twice a day to the affected nail and cuticle, preferably in the morning and in the evening. Hold the tip of the dropper above the nail. Avoid direct contact between the dropper providing the solution and the infected nail to keep liquid clean. Squeeze the tube gently and drop the drop onto the cuticle/proximal fold. It is preferred to cover the whole nail with a thin layer of the solution. In particular cases it is important that the solution is also applied under the edge of the affected nail (on the distal nail bed) e.g. with a cotton swab, in particular when the infection started from there. Allow the nail to dry for a few minutes after application. The treatment duration varies depending on the severity of the infection; in many cases 3-6 months of treatment may be necessary. For optimal results, continue the treatment until a new healthy nail has fully grown. […] Reference is made to FIG. 1."}}, "note": "No end group written: not given here."}
{"sequence": "GRRRRSVQWCA [hLF1-11, Gly Arg Arg Arg Arg Ser Val Gln Trp Cys Ala]", "values": [{"measurement": "Inhibitory concentration IC50", "setting": "Trichoderma viride", "result": "IC50 = 952 μg/mL"}, {"measurement": "Inhibitory concentration MIC (MIC90)", "setting": "Penicillium vermiculatum", "result": "MIC = 45 μg/ml"}, {"measurement": "Inhibitory concentration MIC (MIC90)", "setting": "[1]", "result": "MIC = 6 μg/ml"}, {"measurement": "Inhibitory concentration MIC (MIC90)", "setting": "Aspergillus nidulans", "result": "MIC = 2.5-12.5 μg/ml"}, {"measurement": "Inhibitory concentration MIC (MIC90)", "setting": "Cryptococcus neoformans", "result": "MIC = 12.5-50 μg/mL"}, {"measurement": "Inhibitory concentration MIC (MIC90)", "setting": "Sporotrichium spp", "result": "MIC = 40 μg/ml"}, {"measurement": "Inhibitory concentration MIC (MIC90)", "setting": "[2]", "result": "MIC = 1.6 μg/ml"}, {"measurement": "Inhibitory concentration MIC (MIC90)", "setting": "Penicillium pinophilum", "result": "MIC = 45 μg/ml"}, {"measurement": "Inhibitory concentration MIC (MIC90)", "setting": "Dekkera bruxellensis", "result": "MIC = 3.75-20 μM"}, {"measurement": "Inhibitory concentration MIC (MIC90)", "setting": "Cryptococcus curvatus", "result": "MIC = 9 μg/ml"}, {"measurement": "Inhibitory concentration MIC (MIC90)", "setting": "[3]", "result": "MIC = 3.1 μg/ml"}, {"measurement": "Inhibitory concentration MIC (MIC90)", "setting": "Botrytis cinerea", "result": "MIC = 16 μM"}, {"measurement": "Inhibitory concentration MIC (MIC90)", "setting": "Aspergillus niger", "result": "MIC = 50 μg/mL"}, {"measurement": "Inhibitory concentration MIC (MIC90)", "setting": "Entrobacter cloacae", "result": "MIC = 6.3 μg/ml"}, {"measurement": "Inhibitory concentration MIC (MIC90)", "setting": "Malassezia furfur spp.", "result": "MIC = 12.5-50 μg/mL"}, {"measurement": "Inhibitory concentration MIC (MIC90)", "setting": "Zygosaccharomyces bailii", "result": "MIC = 8 μM"}, {"measurement": "Inhibitory concentration MIC (MIC90)", "setting": "Nannizzia otae", "result": "MIC = 60 μg/ml"}, {"measurement": "Inhibitory concentration MIC (MIC90)", "setting": "Fusarium moniliforme", "result": "MIC = 2.5-5 μg/ml"}, {"measurement": "Inhibitory concentration MIC (MIC90)", "setting": "Nannizzia incurvata", "result": "MIC = 18 μg/ml"}, {"measurement": "Inhibitory concentration MIC (MIC90)", "setting": "Proteus spp", "result": "MIC = 6.3 μg/ml"}, {"measurement": "Inhibitory concentration MIC (MIC90)", "setting": "Geotrichium spp", "result": "MIC = 50 μg/mL"}, {"measurement": "Inhibitory concentration MIC (MIC90)", "setting": "Trichophyton spp", "result": "MIC = 6.3-45 μg/ml"}, {"measurement": "Inhibitory concentration MIC (MIC90)", "setting": "Moraxella catarrhalis", "result": "MIC = 2 μg/ml"}, {"measurement": "Inhibitory concentration MIC (MIC90)", "setting": "[4]", "result": "MIC = 25 μg/ml"}, {"measurement": "Inhibitory concentration MIC (MIC90)", "setting": "[5]", "result": "MIC = 50 μg/ml"}, {"measurement": "Inhibitory concentration MIC (MIC90)", "setting": "C. guilliermondii", "result": "MIC = 5-40 μg/ml"}, {"measurement": "Inhibitory concentration MIC (MIC90)", "setting": "C. krusei (LUMC)", "result": "MIC = 25 μg/mL"}, {"measurement": "Inhibitory concentration MIC (MIC90)", "setting": "C. krusei CMC-2002", "result": "MIC = 25 μg/mL"}, {"measurement": "Inhibitory concentration MIC (MIC90)", "setting": "C. krusei spp", "result": "MIC = 10-25 μg/ml"}, {"measurement": "Inhibitory concentration MIC (MIC90)", "setting": "C. glabrata CBS-138", "result": "MIC = 25 μg/mL"}, {"measurement": "Inhibitory concentration MIC (MIC90)", "setting": "C. glabrata spp.", "result": "MIC = 25 μg/mL"}, {"measurement": "Inhibitory concentration MIC (MIC90)", "setting": "C. glabrata (LUMC)", "result": "MIC = 25 μg/mL"}, {"measurement": "Inhibitory concentration MIC (MIC90)", "setting": "C. glabrata CMC-1933", "result": "MIC = 25 μg/mL"}, {"measurement": "Inhibitory concentration IC50", "setting": "Sclerotium rolfsii", "result": "IC50 = 231 μg/mL"}, {"measurement": "recurrent infection in treated patients", "setting": "onychomycosis; after 4 months or even longer", "result": "do not show signs of recurrent infection"}, {"measurement": "time to first visible improvements", "setting": "onychomycosis; twice daily application, 30 mg/l composition", "result": "two to four"}]}
